Results on eleven molecules are retold here after ChEMBL document CHEMBL1201862, “PubChem BioAssay data set” (2004).

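Where inhibition never reached the appropriate level, the endpoint shown equals the highest concentration tested. Otherwise, values were interpolated linearly from a five-concentration, 48-hour dose response in 96-well plates. The concentration for 50% growth inhibition is given as GI50.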 Calls of active or inactive are those of the source. Rule as the data show it: active = GI50 up to about 1.1 µM and inactive = higher. Bounds are passed on as bounds.

Common to all, as to assay: NCI anticancer screen, dose series, 48 h
The subject of assay [1] is SK-MEL-2.
Assay [2] deals with KM12.
The test system of assay [3] is SNB-75.
The test system of assay [4] is OVCAR-3.
In assay [5] the test system is SK-MEL-28.
Assay [6] has as its system A498.
Assay [7] has as its system UACC-62.
Assay [8] has as its system SF-295.
Assay [9] relates to SNB-19.
For assay [10], the system named is Malme-3M.
Assay [11] has as its system HCT-15.
Assay [12] has as its system SW-620.
The test system of assay [13] is RPMI-8226.
Assay [14] has as its system OVCAR-8.
Assay [15] relates to MOLT-4.
The subject of assay [16] is SN12C.
Assay [17] relates to TK-10.
In assay [18] the test system is LOX IMVI.
Assay [19] has as its system HT-29.

As for `O=c1ccc(=O)c2c(=O)c3ccccc3c(=O)c1=2`, the GI50 is 20.8 µM (inactive) in [1]; 37.1 µM (inactive) in [2]; > 100 µM (inactive) in assay [3]; 21.2 µM (inactive) in assay [4]; > 100 µM (inactive) in assay [5]; > 100 µM (inactive) in [6]. Moreover, the GI50 in assay [7] is 36.7 µM (inactive); in assay [8] it was 34.4 µM (inactive); in assay [9] it was 41.3 µM (inactive); in [10], 26.5 µM (inactive); in [11], 46.2 µM; in assay [12] it was 32.7 µM (inactive). Besides, the GI50 in assay [13] is 27.5 µM (inactive); in [14] it was 27.5 µM (inactive); in [15], 23 µM (inactive); in [16] it was 38.5 µM (inactive); in assay [17], > 100 µM (inactive); in assay [18] it was 42.6 µM (inactive).
Turning to `CC(C)OP(=O)(OC(C)C)/C(=N/Nc1ccc([N+](=O)[O-])cc1)NN`, the GI50 was > 100 µM (inactive) in [1]; > 100 µM (inactive) in assay [2]; 83.2 µM (inactive) in assay [3]; > 100 µM (inactive) in assay [4]; > 100 µM (inactive) in assay [5]; > 100 µM (inactive) in [6]. Also, the GI50 in assay [7] is 34.4 µM (inactive); in [9] it was > 100 µM (inactive); in [10], > 100 µM (inactive); in assay [11], above 100 µM; in assay [12], > 100 µM (inactive); in assay [13], 88.3 µM (inactive). The GI50 was > 100 µM (inactive) in assay [14]; 61.9 µM (inactive) in assay [15]; > 100 µM (inactive) in [16]; > 100 µM (inactive) in assay [17]; > 100 µM (inactive) in assay [18].
`O=C1c2ccccc2C(=O)c2nc3c(O)cccc3cc21`: the GI50 was > 100 µM (inactive) in [1]; 47.6 µM (inactive) in [2]; 68.1 µM (inactive) in assay [3]; 1.87 µM (inactive) in assay [4]; > 100 µM (inactive) in assay [5]; 25.9 µM (inactive) in [6]. For the same molecule, the GI50 in assay [7] was 37.3 µM (inactive); in [8] it was 12.7 µM (inactive); in [9], 14.7 µM (inactive); in assay [10] it was 53.5 µM (inactive); in [11], 13 µM; in [12], 3.57 µM (inactive). Besides, the GI50 was 6.47 µM (inactive) in assay [13]; 26 µM (inactive) in assay [14]; 3.38 µM (inactive) in assay [15]; 21 µM (inactive) in [19]; 25.4 µM (inactive) in assay [16]; 74.5 µM (inactive) in [17]. Also, in assay [18], the GI50 was 13.9 µM (inactive).
Turning to `O=C1C(Cl)=C(Cl)C(=O)N1C1C2CC3CC(C2)CC1C3` (stereo unspecified), the GI50 in assay [1], in [3], in assay [5], in assay [6], in [7] and in [8] was > 100 µM (inactive) throughout. In addition, the GI50 is > 100 µM (inactive) in assay [9]; > 100 µM (inactive) in [10]; above 100 µM in assay [11]; 47 µM (inactive) in assay [12]; 27 µM (inactive) in assay [13]; > 76.4 µM (inactive) in assay [14]. Moreover, the GI50 in assay [15] was 21.4 µM (inactive); in assay [19], > 100 µM (inactive); in assay [16] it was > 100 µM (inactive); in [17] it was > 100 µM (inactive); in [18], > 100 µM (inactive).
For the molecule `CCOC(=O)C(=O)Nc1c(CC)cccc1C(C)C`, the GI50 in [1], in assay [2], in assay [3], in [4], in assay [5] and in assay [6] was > 100 µM (inactive) each time. In addition, the GI50 is > 100 µM (inactive) in assay [7]; > 100 µM (inactive) in assay [8]; > 100 µM (inactive) in assay [9]; > 100 µM (inactive) in assay [10]; above 100 µM in assay [11]; > 100 µM (inactive) in assay [12]. Further, the GI50 in [13], in [14], in assay [19], in assay [16], in assay [17] and in assay [18] was > 100 µM (inactive) each time.
With `Clc1cccc(N/N=N/c2ccc(-c3nc4ccccc4s3)cc2)c1`, the GI50 was 21.2 µM (inactive) in [1]; > 100 µM (inactive) in assay [2]; 30.3 µM (inactive) in assay [3]; 51.5 µM (inactive) in assay [4]; 42.8 µM (inactive) in [5]; > 100 µM (inactive) in assay [6]. The GI50 in [7] is 25.2 µM (inactive); in [8], > 100 µM (inactive); in assay [9] it was 86.1 µM (inactive); in [10], 26.6 µM (inactive); in [11] it was 32.4 µM; in assay [12], 33.7 µM (inactive). Further, the GI50 in [13] is 58.7 µM (inactive); in assay [14], 22.4 µM (inactive); in assay [15], 18.4 µM (inactive); in assay [19] it was > 100 µM (inactive); in assay [16], 21.9 µM (inactive); in [17], 94.6 µM (inactive). Besides, the GI50 in assay [18] was 53 µM (inactive).
`CC1=C(O)C(=O)c2cn(C)cc2C1=O`: the GI50 in [1], in assay [2], in assay [3], in [4], in assay [5] and in [6] was > 100 µM (inactive) each time. Moreover, the GI50 was > 100 µM (inactive) in assay [7]; > 100 µM (inactive) in assay [8]; > 100 µM (inactive) in [9]; > 100 µM (inactive) in assay [10]; above 100 µM in assay [11]; > 100 µM (inactive) in assay [12]. Also, the GI50 in assay [13], in assay [14], in assay [15], in assay [19], in [16] and in assay [17] was > 100 µM (inactive) each time. Further, the GI50 in assay [18] was > 100 µM (inactive).
On to `CC/C(SC)=[N+](\C)[O-]`, for which the GI50 in [1] is > 100 µM (inactive); in assay [2] it was > 100 µM (inactive); in assay [3], > 67.9 µM (inactive); in [4], > 100 µM (inactive); in assay [5], > 100 µM (inactive); in [6] it was > 100 µM (inactive). Moreover, the GI50 was > 100 µM (inactive) in [7]; > 100 µM (inactive) in assay [8]; > 100 µM (inactive) in assay [9]; > 100 µM (inactive) in [10]; 57.9 µM in assay [11]; > 100 µM (inactive) in assay [12]. In addition, the GI50 was > 93.1 µM (inactive) in assay [13]; > 100 µM (inactive) in assay [14]; 32.7 µM (inactive) in [15]; > 100 µM (inactive) in assay [19]; > 100 µM (inactive) in [16]; > 100 µM (inactive) in [17]. In [18], the GI50 was > 41.3 µM (inactive).
As for `CC1=CC2CC(C)C1(C)CCc1ccoc12` (stereo unspecified), the GI50 in assay [1], in assay [2], in assay [3], in assay [4], in assay [5] and in assay [6] was > 100 µM (inactive) in each case. The GI50 in assay [7] was > 100 µM (inactive); in assay [8], > 100 µM (inactive); in [9], > 100 µM (inactive); in assay [10], > 100 µM (inactive); in assay [11], above 100 µM; in assay [12] it was > 100 µM (inactive). Besides, the GI50 in assay [13], in assay [14], in assay [15], in [19], in assay [16] and in assay [17] was > 100 µM (inactive) in each case. Also, the GI50 in assay [18] was > 100 µM (inactive).
In the case of `COC(=O)C1=C(C[S+]([O-])c2ccccc2[N+](=O)[O-])ON(C)C1c1ccccc1` (stereo unspecified), the GI50 in assay [1] is 62.1 µM (inactive); in [2], 55.5 µM (inactive); in assay [3], 24.8 µM (inactive); in assay [4] it was 40.5 µM (inactive); in assay [6], > 100 µM (inactive); in assay [7], 28.8 µM (inactive). Further, the GI50 in assay [8] was 65.8 µM (inactive); in assay [9] it was > 100 µM (inactive); in assay [10], > 100 µM (inactive); in [11], 22.5 µM; in assay [12], 25.4 µM (inactive); in assay [13] it was 34 µM (inactive). Also, the GI50 was 21.3 µM (inactive) in assay [14]; 31 µM (inactive) in assay [15]; 32.1 µM (inactive) in assay [19]; 19 µM (inactive) in assay [16]; 35.7 µM (inactive) in assay [17]; 13.3 µM (inactive) in assay [18].
`O=C1OC(c2ccccc2)=N/C1=C/NC(Cc1c[nH]c2ccccc12)C(=O)O` (stereo unspecified): the GI50 in assay [1] is > 100 µM (inactive); in [3] it was 69.7 µM (inactive); in assay [4], > 100 µM (inactive); in [5] it was > 100 µM (inactive); in assay [6], > 100 µM (inactive); in assay [7], > 100 µM (inactive). Besides, the GI50 is > 100 µM (inactive) in [8]; > 100 µM (inactive) in assay [9]; > 100 µM (inactive) in [10]; above 100 µM in [11]; > 100 µM (inactive) in [12]; > 100 µM (inactive) in assay [13]. For the same molecule, the GI50 in assay [14], in [15], in [19], in [16], in assay [17] and in assay [18] was > 100 µM (inactive) throughout.
